# Laboratory results as given in patent US20140228312A1, “ANTIBIOTIC COMPOSITION AND ITS USES” (Agency for Science, Technology and Research, priority 2011, published 2014).
# Legend:
# [1] = system: B. cereus; test: MIC assay, antibiotic with or without DSF-family molecules; type: cell-based, Bacillus cereus; conditions: for MIC of Gentamicin, Mean: gentamicin alone (MeOH control, no DSF-family molecule)
# Protocol: (§1) Minimum inhibitory concentration (MIC) was determined according to the 2003 guidelines of Clinical and Laboratory Standards Institute (CLSI) using 96-well microtiter plates. The two-fold dilution series of antibacterial agents or antibiotics were prepared with distilled water, methanol, or dimethyl sulfoxide (DMSO). Overnight cultures of bacteria were inoculated at an OD600 of 0.025 in Luria-Bertani (LB) broth supplemented with the respective antibiotic in the absence or presence of DSF-family molecules (Table 1). One hundred microliters of inoculated culture were grown in each well at 37° C. with shaking at 150 rpm for 24 hours. MIC was defined as the lowest concentration of antibiotic in which bacterial growth in the well was not measureable by determination of the turbidity at 600 nm.
# [2] = system: B. cereus; test: Bacterial growth analysis (Bioscreen-C); type: cell-based, Bacillus cereus; conditions: final concentration of 50 μM, no antibiotic
# Protocol: (§2) Overnight bacterial cultures grown in LB broth was inoculated in the same medium to an OD600 of 0.025; the medium was supplemented with a respective antibiotic and DSF-family signals were added in a final concentration of 50 μM or otherwise indicated. Three hundred microliters of inoculated culture were grown in each well at 37° C. in a low intensity shaking model using the Bioscreen-C Automated Growth Curves Analysis System (OY Growth Curves AB Ltd, Finland).
# [3] = system: N. subflava; test: MIC assay, antibiotic with or without DSF; type: cell-based, Neisseria subflava; conditions: DSF 50 μM
# Protocol: as §1
# [4] = system: P. aeruginosa strain PAO1; test: Bacterial growth analysis (Bioscreen-C); type: cell-based, Pseudomonas aeruginosa
# Protocol: as §2
# P. aeruginosa is a major source of opportunistic infections in both immunocompromised individuals and cystic fibrosis patients (Bodey et al., 1983; Richards et al., 2000). It appeared to be less responsive to DSF than other tested bacterial pathogen in our preliminary MIC assay. We therefore used the Bioscreen-C Automated Growth Curves Analysis System to determine the synergistic effect of DSF with antibiotics. Gentamicin and kanamycin were added to the culture of P. aeruginosa strain PAO1 at a final concentration of 2 nM and 0.2 μM, respectively, in the absence and presence of 50 μM DSF.
# [5] = system: B. thuringiensis; test: MIC assay, antibiotic with or without DSF; type: cell-based, Bacillus thuringiensis; conditions: DSF 50 μM
# Protocol: as §1
# [6] = system: S. aureus; test: MIC assay, antibiotic with or without DSF; type: cell-based, Staphylococcus aureus; conditions: DSF 50 μM
# Protocol: as §1
# [7] = system: M. smegmatis; test: MIC assay, antibiotic with or without DSF; type: cell-based, Mycobacterium smegmatis; conditions: DSF 50 μM
# Protocol: as §1
# [8] = 50 μM DSF-family molecule vs MeOH control
molecule,measurement,setting,value
CCCCC/C=C\C(=O)O [Compound C8],Fold Change of MIC of Ampicillin,[1]; [8],0
same,Fold Change of MIC of Kanamycin,[1]; [8],2
same,Fold Change of MIC of Rifampicin,[1]; [8],2
same,Fold change of MIC of Gentamicin,[1]; [8],0
CCCCCCC/C=C\C(=O)O [Compound C10],Fold Change of MIC of Ampicillin,[1]; [8],0
same,Fold Change of MIC of Kanamycin,[1]; [8],4
same,Fold Change of MIC of Rifampicin,[1]; [8],2.6
same,Fold change of MIC of Gentamicin,[1]; [8],2
CCCCCCCC/C=C\C(=O)O [Compound C11],Fold Change of MIC of Kanamycin,[1]; [8],16
same,Fold Change of MIC of Rifampicin,[1]; [8],4
same,Fold change of MIC of Gentamicin,[1]; [8],16
CCCCCCCCC/C=C\C(=O)O [Compound C12],effect on bacterial growth rate,[2],did not affect the bacterial growth rate
same,Fold Change of MIC of Ampicillin,[1]; [8],0
same,Fold Change of MIC of Kanamycin,[1]; [8],4
same,Fold Change of MIC of Rifampicin,[1]; [8],2.6
same,Fold change of MIC of Gentamicin,[1]; [8],8
CCCCCCCCCC/C=C\C(=O)O [Compound C13],effect on bacterial growth rate,[2],did not affect the bacterial growth rate
same,Fold Change of MIC of Kanamycin,[1]; 5 μM C13 vs MeOH,2
same,Fold change of MIC of Gentamicin,[1]; 5 μM C13 vs MeOH,0
same,Fold Change of MIC of Kanamycin,[1]; 10 μM C13 vs MeOH,2
same,Fold change of MIC of Gentamicin,[1]; 10 μM C13 vs MeOH,2
same,Fold Change of MIC of Kanamycin,[1]; 20 μM C13 vs MeOH,8
same,Fold change of MIC of Gentamicin,[1]; 20 μM C13 vs MeOH,4
same,Fold Change of MIC of Kanamycin,[1]; 30 μM C13 vs MeOH,8
same,Fold change of MIC of Gentamicin,[1]; 30 μM C13 vs MeOH,8
same,Fold Change of MIC of Kanamycin,[1]; 40 μM C13 vs MeOH,16
same,Fold change of MIC of Gentamicin,[1]; 40 μM C13 vs MeOH,21.3
same,Fold Change of MIC of Kanamycin,[1]; 50 μM C13 vs MeOH,16
same,Fold change of MIC of Gentamicin,[1]; 50 μM C13 vs MeOH,32
same,Fold Change of MIC of Ampicillin,[1]; [8],0
same,Fold Change of MIC of Kanamycin,[1]; [8],16
same,Fold Change of MIC of Rifampicin,[1]; [8],2.6
same,Fold change of MIC of Gentamicin,[1]; [8],32
CCCCCCCCCCC/C=C\C(=O)O [Compound C14],Fold Change of MIC of Ampicillin,[1]; [8],0
same,Fold Change of MIC of Kanamycin,[1]; [8],32
same,Fold Change of MIC of Rifampicin,[1]; [8],2
same,Fold change of MIC of Gentamicin,[1]; [8],32
CCCCCCCCCCCC/C=C\C(=O)O [Compound C15],drug adjuvant with ampicillin,[1]; 50 μM DSF-family molecule,best drug adjuvant with ampicillin
same,Fold Change of MIC of Kanamycin,[1]; [8],32
same,Fold Change of MIC of Rifampicin,[1]; [8],4
same,Fold change of MIC of Gentamicin,[1]; [8],128
CCCCCCCCCCCC(=O)O [Compound S12],Fold Change of MIC of Ampicillin,[1]; [8],0
same,Fold Change of MIC of Kanamycin,[1]; [8],8
same,Fold Change of MIC of Rifampicin,[1]; [8],2
same,Fold change of MIC of Gentamicin,[1]; [8],4
CCCCC/C=C/C(=O)O [Compound T8],Fold Change of MIC of Ampicillin,[1]; [8],0
same,Fold Change of MIC of Kanamycin,[1]; [8],2
same,Fold Change of MIC of Rifampicin,[1]; [8],0
same,Fold change of MIC of Gentamicin,[1]; [8],0
CCCCCCC/C=C/C(=O)O [Compound T10],Fold Change of MIC of Ampicillin,[1]; [8],0
same,Fold Change of MIC of Kanamycin,[1]; [8],4
same,Fold Change of MIC of Rifampicin,[1]; [8],2
same,Fold change of MIC of Gentamicin,[1]; [8],2
CCCCCCCC/C=C/C(=O)O [Compound T11],Fold Change of MIC of Kanamycin,[1]; [8],8
same,Fold Change of MIC of Rifampicin,[1]; [8],2.6
same,Fold change of MIC of Gentamicin,[1]; [8],16
CCCCCCCCC/C=C/C(=O)O [Compound T12],Fold Change of MIC of Ampicillin,[1]; [8],0
same,Fold Change of MIC of Kanamycin,[1]; [8],16
same,Fold Change of MIC of Rifampicin,[1]; [8],1.3
same,Fold change of MIC of Gentamicin,[1]; [8],21.3
CCCCCCCCCC/C=C/C(=O)O [Compound T13],Fold Change of MIC of Ampicillin,[1]; [8],0
same,Fold Change of MIC of Kanamycin,[1]; [8],5.3
same,Fold Change of MIC of Rifampicin,[1]; [8],2
same,Fold change of MIC of Gentamicin,[1]; [8],8
CCCCCCCCCCC/C=C/C(=O)O [Compound T14],synergistic activity with kanamycin,[1]; 50 μM DSF-family molecule,strongest synergistic activity
same,Fold Change of MIC of Kanamycin,[1]; [8],64
same,Fold Change of MIC of Rifampicin,[1]; [8],1.3
same,Fold change of MIC of Gentamicin,[1]; [8],128
CCCCCCCCCCCC/C=C/C(=O)O [Compound T15],Fold Change of MIC of Ampicillin,[1]; [8],0
same,Fold Change of MIC of Kanamycin,[1]; [8],2
same,Fold Change of MIC of Rifampicin,[1]; [8],2
same,Fold change of MIC of Gentamicin,[1]; [8],0
"CC(C)CCCCCCC/C=C\C(=O)O [DSF, cis 11-methyl-2-dodecenoic acid]",effect on bacterial growth rate,[2],did not affect the bacterial growth rate
same,effect on MIC of ampicillin,[3],did not affect
same,effect on MIC of rifampicin,[3],did not affect
same,reduction of MIC of gentamicin,[3],about 50%
same,reduction of MIC of kanamycin,[3],about 50%
same,effect on susceptibility to gentamicin,[4]; 50 μM DSF + gentamicin 2 nM,enhanced the susceptibility
same,delay of bacterial growth,[4]; 50 μM DSF + gentamicin 2 nM vs gentamicin alone,6 h
same,effect on susceptibility to kanamycin,[4]; 50 μM DSF + kanamycin 0.2 μM,enhanced the susceptibility
same,delay of bacterial growth,[4]; 50 μM DSF + kanamycin 0.2 μM vs kanamycin alone,8 h
same,effect on growth rate,"[4]; 50 μM DSF, no antibiotic",did not affect the growth rate
same,decrease of MIC of ampicillin,[5],75%
same,decrease of MIC of gentamicin,[5],93.75%
same,decrease of MIC of kanamycin,[5],93.75%
same,decrease of MIC of rifampicin,[5],75%
same,reduction of MIC of ampicillin,[6],50%
same,reduction of MIC of gentamicin,[6],50%
same,reduction of MIC of kanamycin,[6],50%
same,Fold Change of MIC of Kanamycin,[1]; 5 μM DSF vs MeOH,1.3
same,Fold change of MIC of Gentamicin,[1]; 5 μM DSF vs MeOH,2
same,Fold Change of MIC of Kanamycin,[1]; 10 μM DSF vs MeOH,2
same,Fold change of MIC of Gentamicin,[1]; 10 μM DSF vs MeOH,2
same,Fold Change of MIC of Kanamycin,[1]; 20 μM DSF vs MeOH,2
same,Fold change of MIC of Gentamicin,[1]; 20 μM DSF vs MeOH,5.3
same,Fold Change of MIC of Kanamycin,[1]; 30 μM DSF vs MeOH,5.3
same,Fold change of MIC of Gentamicin,[1]; 30 μM DSF vs MeOH,8
same,Fold Change of MIC of Kanamycin,[1]; 40 μM DSF vs MeOH,5.3
same,Fold change of MIC of Gentamicin,[1]; 40 μM DSF vs MeOH,16
same,Fold Change of MIC of Kanamycin,[1]; 50 μM DSF vs MeOH,16
same,Fold change of MIC of Gentamicin,[1]; 50 μM DSF vs MeOH,16
same,Fold Change of MIC of Ampicillin,[1]; [8],0
same,Fold Change of MIC of Kanamycin,[1]; [8],16
same,Fold Change of MIC of Rifampicin,[1]; [8],2
same,Fold change of MIC of Gentamicin,[1]; [8],16
same,enhancement of susceptibility to gentamicin,[7],50%
same,enhancement of susceptibility to kanamycin,[7],25%
same,enhancement of susceptibility to trimethoprim,[7],50%
"NC[C@H]1O[C@H](O[C@H]2[C@H](O)[C@@H](O[C@H]3O[C@H](CO)[C@@H](O)[C@H](N)[C@H]3O)[C@H](N)C[C@@H]2N)[C@H](O)[C@@H](O)[C@@H]1O [Kanamycin, kanamycin, reference compound]",time of recovery of bacterial growth,[4]; kanamycin 0.2 μM alone,22 hour post inoculation
gentamicin [reference compound],time of recovery of bacterial growth,[4]; gentamicin 2 nM alone,10 hour post inoculation
same,"MIC of Gentamicin, Mean",[1],8 µg/mL
same,"MIC of Gentamicin, Mean",[1]; listed as gentamicin,8.0 µg/mL
